From ChEMBL document CHEMBL4342467, “Discovery of a Novel Dual-Target Inhibitor of ERK1 and ERK5 That Induces Regulated Cell Death to Overcome Compensatory Mechanism in Specific Tumor Types” (J Med Chem, 2020) come the findings set out here.

The structures appear in SMILES notation.

Broadly, the inhibition is the percentage by which the read-out fell short of the control. Read a low inhibition as little suppression. Usually IC50 stands for the midpoint of a concentration-inhibition curve.

Experiment [1] has as its target Mitogen-activated protein kinase 3 (Homo sapiens) (UniProt P27361). Put plainly: Inhibition of ERK1 (unknown origin) at 1 uM by Z'-Lyte assay relative to control.
The target of experiment [2] is Mitogen-activated protein kinase 1 (Homo sapiens) (UniProt P28482). The experiment is described as follows: Inhibition of ERK2 (unknown origin) at 1 uM by Z'-Lyte assay relative to control.
Chain of Mitogen-activated protein kinase 1 (Homo sapiens) (P28482 whole entry): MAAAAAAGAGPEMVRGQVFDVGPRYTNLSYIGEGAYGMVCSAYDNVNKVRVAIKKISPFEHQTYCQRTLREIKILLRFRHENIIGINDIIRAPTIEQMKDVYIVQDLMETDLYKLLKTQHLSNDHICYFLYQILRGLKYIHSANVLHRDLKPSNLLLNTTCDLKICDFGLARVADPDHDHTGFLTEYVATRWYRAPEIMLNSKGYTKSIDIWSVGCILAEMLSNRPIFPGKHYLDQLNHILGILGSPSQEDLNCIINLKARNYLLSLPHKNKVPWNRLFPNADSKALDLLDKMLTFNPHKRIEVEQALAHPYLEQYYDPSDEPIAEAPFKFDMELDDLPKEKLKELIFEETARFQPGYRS
The target of experiment [3] is Mitogen-activated protein kinase 7 (Homo sapiens) (UniProt Q13164). Put plainly: Inhibition of ERK5 (unknown origin) at 1 uM by Z'-Lyte assay relative to control.
Chain of Mitogen-activated protein kinase 7 (Homo sapiens) (Q13164 2-816 limits assumed): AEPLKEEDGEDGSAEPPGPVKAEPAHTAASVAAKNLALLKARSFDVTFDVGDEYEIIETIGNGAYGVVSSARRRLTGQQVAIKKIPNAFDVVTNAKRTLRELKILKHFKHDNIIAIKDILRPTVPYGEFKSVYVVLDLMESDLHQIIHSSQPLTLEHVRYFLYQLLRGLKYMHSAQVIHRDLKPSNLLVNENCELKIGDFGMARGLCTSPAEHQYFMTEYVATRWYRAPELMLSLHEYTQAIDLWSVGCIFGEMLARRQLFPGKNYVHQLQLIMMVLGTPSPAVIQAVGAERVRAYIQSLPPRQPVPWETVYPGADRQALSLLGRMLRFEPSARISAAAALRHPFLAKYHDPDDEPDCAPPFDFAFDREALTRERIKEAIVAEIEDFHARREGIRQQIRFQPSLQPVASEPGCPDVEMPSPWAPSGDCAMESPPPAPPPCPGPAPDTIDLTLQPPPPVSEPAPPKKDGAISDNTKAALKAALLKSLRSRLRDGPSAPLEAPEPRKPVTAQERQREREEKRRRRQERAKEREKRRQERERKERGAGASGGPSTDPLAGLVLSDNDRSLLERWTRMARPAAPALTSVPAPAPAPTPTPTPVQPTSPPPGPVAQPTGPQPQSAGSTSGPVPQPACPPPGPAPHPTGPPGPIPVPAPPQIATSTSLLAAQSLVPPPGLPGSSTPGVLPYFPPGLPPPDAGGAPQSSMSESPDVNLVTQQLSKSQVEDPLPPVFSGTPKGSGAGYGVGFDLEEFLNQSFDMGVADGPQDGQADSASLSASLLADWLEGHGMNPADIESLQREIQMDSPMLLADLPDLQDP
The next experiment deals with HL-60. The experiment is described as follows: Antiproliferative activity against human HL60 cells assessed as reduction in cell viability measured after 24 hrs. The class given is functional, cell-based. Conditions: HL-60, 24 h.
Another experiment concerns MKN-74. The experiment is described as follows: Antiproliferative activity against human MKN74 cells assessed as reduction in cell viability measured after 24 hrs. In kind it is functional, cell-based. Conditions: MKN-74, 24 h.
In the next experiment the test system is HeLa. The experiment is described as follows: Antiproliferative activity against human HeLa cells assessed as reduction in cell viability measured after 24 hrs. In kind it is functional, cell-based.

Chain of Mitogen-activated protein kinase 3 (Homo sapiens) (P27361 whole entry): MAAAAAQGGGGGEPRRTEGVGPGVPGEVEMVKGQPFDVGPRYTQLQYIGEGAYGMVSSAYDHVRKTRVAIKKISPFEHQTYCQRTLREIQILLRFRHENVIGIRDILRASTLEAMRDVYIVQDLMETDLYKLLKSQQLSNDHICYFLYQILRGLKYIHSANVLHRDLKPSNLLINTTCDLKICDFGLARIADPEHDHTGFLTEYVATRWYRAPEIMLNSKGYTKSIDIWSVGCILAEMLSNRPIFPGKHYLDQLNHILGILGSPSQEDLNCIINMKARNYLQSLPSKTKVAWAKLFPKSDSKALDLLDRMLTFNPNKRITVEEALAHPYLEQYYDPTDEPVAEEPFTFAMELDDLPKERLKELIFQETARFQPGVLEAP

`NC(=O)c1c(NC(=O)c2ccccc2F)sc2c1CCN(C(=O)Nc1ccccc1Cl)C2`: the inhibition was 65% in experiment [1], 62.4% in experiment [2] and 54.9% in experiment [3]. For the same compound, the results for the IC50 with HL-60, with MKN-74 and in the experiment with HeLa were 32.7 µM, 49.6 µM and greater than 50 µM, respectively.

Turning to `CCCCCC(=O)Nc1sc2c(c1C(N)=O)CCN(C(=S)NCCCC)C2`, the inhibition is 60.5% in experiment [1], 68.5% in experiment [2] and 43.3% in experiment [3]. Further, the half-maximal inhibitory concentration (IC50) in the experiment on HL-60, with MKN-74 and in the experiment with HeLa was greater than 50 µM throughout.

With `NC(=O)c1c(NC(=O)c2ccccc2I)sc2c1CCN(C(=S)Nc1ccccc1C(F)(F)F)C2`, the figures for the inhibition in experiment [1], in experiment [2] and in experiment [3] were 77.5%, 80.7% and 64.8%, respectively. Moreover, the IC50 amounted to 19.7 µM in the experiment with HL-60, 14.2 µM with MKN-74 and 49.2 µM in the experiment on HeLa.

For the compound `NC(=O)c1c(NC(=O)c2ccccc2Br)sc2c1CCN(C(=S)Nc1ccccc1Br)C2`, the inhibition turned out to be 80.9% in experiment [1], 82.1% in experiment [2] and 88.4% in experiment [3]. Further, the IC50 in the experiment on HL-60 was determined as 17.6 µM; in the experiment on MKN-74, 13.7 µM; in the experiment with HeLa it was 24.7 µM.

In the case of `Cc1ccc(C(=O)Nc2sc3c(c2C(N)=O)CCN(C(=S)Nc2ccccc2Cl)C3)cc1`, the figures for the inhibition in experiment [1], in experiment [2] and in experiment [3] were 83.2%, 82.8% and 50.4%, respectively. The 50% inhibitory concentration (IC50) is 8.43 µM with HL-60, 11.3 µM with MKN-74 and 26.2 µM with HeLa.

As for `COc1ccc(NC(=S)N2CCc3c(sc(NC(=O)c4ccccc4Cl)c3C(N)=O)C2)cc1`, the inhibition in experiment [1] amounted to 78.1%; in experiment [2], 68.7%; in experiment [3], 55.7%. The IC50 with HL-60 turned out to be 15.7 µM; in the experiment with MKN-74, 19.6 µM; in the experiment with HeLa, 36.4 µM.

In the case of `NC(=O)c1c(NC(=O)c2ccccc2Cl)sc2c1CCN(C(=O)Nc1c(Cl)cccc1Cl)C2`, the inhibition in experiment [1] is 82.7%; in experiment [2], 85%; in experiment [3], 82.7%. Moreover, the results for the IC50 in the experiment on HL-60, in the experiment on MKN-74 and in the experiment with HeLa were 17.7 µM, 24.4 µM and 27.2 µM, respectively.

Take `Cc1ccccc1C(=O)Nc1sc2c(c1C(N)=O)CCN(C(=S)Nc1ccccc1Cl)C2`: the inhibition in experiment [1] worked out at 70.6%; in experiment [2], 65.9%; in experiment [3] it was 53%. Besides, the IC50 was 20.9 µM in the experiment with HL-60, 11 µM with MKN-74 and 35.3 µM in the experiment on HeLa.

`NC(=O)c1c(NC(=O)c2ccccc2Cl)sc2c1CCN(C(=S)Nc1c(Cl)cccc1Cl)C2`: the inhibition in experiment [1] came to 90.7%; in experiment [2], 90.5%; in experiment [3], 88%. Moreover, the values for the half-maximal inhibitory concentration (IC50) in the experiment on HL-60, in the experiment on MKN-74 and in the experiment with HeLa were 3.95 µM, 4.02 µM and 26.5 µM, respectively.

Turning to `NC(=O)c1c(NC(=O)c2ccccc2Cl)sc2c1CCN(Cc1ccccc1Cl)C2`, the figures for the inhibition in experiment [1], in experiment [2] and in experiment [3] were 61.4%, 65.2% and 65.1%, respectively. Also, the half-maximal inhibitory concentration (IC50) in the experiment on HL-60 was 2.9 µM; in the experiment on MKN-74, 4.43 µM; in the experiment with HeLa, 27.5 µM.

In the case of `NC(=O)c1c(NC(=O)c2ccccc2C(F)(F)F)sc2c1CCN(C(=S)Nc1ccccc1Cl)C2`, the values for the inhibition in experiment [1], in experiment [2] and in experiment [3] were 78.8%, 80.9% and 56.5%, respectively. The IC50 in the experiment on HL-60 was 17.6 µM; in the experiment on MKN-74 it was 21.9 µM; with HeLa it was 46.9 µM.

Regarding `NC(=O)c1c(NC(=O)c2ccccc2Br)sc2c1CCN(C(=S)Nc1ccccc1C(F)(F)F)C2`, the inhibition in experiment [1] stood at 79.3%; in experiment [2] it was 72.1%; in experiment [3], 78.6%. The values for the IC50 in the experiment on HL-60, in the experiment on MKN-74 and in the experiment on HeLa were 27.4 µM, 24.3 µM and 39.6 µM, respectively.

As for `NC(=O)c1c(NC(=O)c2ccccc2C(F)(F)F)sc2c1CCN(C(=S)Nc1ccccc1F)C2`, the inhibition in experiment [1] came out at 77.2%; in experiment [2], 81.6%; in experiment [3], 86.5%. For the same compound, the half-inhibitory concentration (IC50) is 23.5 µM in the experiment with HL-60, 19.6 µM in the experiment on MKN-74 and greater than 50 µM in the experiment with HeLa.

Regarding `NC(=O)c1c(NC(=O)c2ccccc2Cl)sc2c1CCN(C(=S)Nc1cccnc1)C2`, the inhibition is 41.9% in experiment [1], 45.4% in experiment [2] and 34.9% in experiment [3]. Moreover, the values for the IC50 in the experiment on HL-60, in the experiment with MKN-74 and in the experiment on HeLa were 33.9 µM, 38.6 µM and greater than 50 µM, respectively.

Take `NC(=O)c1c(NC(=O)c2ccccc2F)sc2c1CCN(Cc1ccc(Cl)cc1Cl)C2`: the inhibition in experiment [1] came to 55.7%; in experiment [2] it was 32.4%; in experiment [3], 38%. The half-maximal inhibitory concentration (IC50) in the experiment on HL-60 worked out at 13.1 µM; in the experiment on MKN-74 it was 9.61 µM; in the experiment on HeLa, 27.5 µM.

As to `NC(=O)c1c(NC(=O)c2ccccc2C(F)(F)F)sc2c1CCN(C(=S)Nc1ccccc1Br)C2`, the inhibition stood at 82.5% in experiment [1], 85.5% in experiment [2] and 73.3% in experiment [3]. The IC50 was 25.5 µM with HL-60, 23.9 µM in the experiment with MKN-74 and greater than 50 µM with HeLa.

Turning to `Cc1ccccc1NC(=S)N1CCc2c(sc(NC(=O)c3ccccc3C(F)(F)F)c2C(N)=O)C1`, the inhibition was determined as 64.9% in experiment [1], 62.8% in experiment [2] and 48.3% in experiment [3]. Besides, the values for the IC50 with HL-60, in the experiment with MKN-74 and in the experiment with HeLa were 25.1 µM, 47.4 µM and 47 µM, respectively.

For `NC(=O)c1c(NC(=O)c2ccccc2F)sc2c1CCN(Cc1cccc(Cl)c1)C2`, the results for the inhibition in experiment [1], in experiment [2] and in experiment [3] were 49.3%, 48.8% and 42.5%, respectively. The figures for the IC50 in the experiment with HL-60, in the experiment with MKN-74 and with HeLa were 19.8 µM, 23.3 µM and 49.5 µM, respectively.

For the compound `NC(=O)c1c(NC(=O)c2ccc(C(F)(F)F)cc2)sc2c1CCN(Cc1ccccc1F)C2`, the results for the inhibition in experiment [1], in experiment [2] and in experiment [3] were 72.2%, 76.8% and 56.8%, respectively. For the same compound, the IC50 in the experiment with HL-60 is greater than 50 µM; with MKN-74 it was 26.9 µM; in the experiment on HeLa it was greater than 50 µM.

Turning to `COc1ccccc1NC(=S)N1CCc2c(sc(NC(=O)c3ccccc3OC)c2C(N)=O)C1`, the inhibition in experiment [1] amounted to 44.7%; in experiment [2] it was 48.7%; in experiment [3], 32%. Besides, the IC50 in the experiment on HL-60, with MKN-74 and in the experiment with HeLa was greater than 50 µM throughout.

As to `NC(=O)c1c(NC(=O)c2ccccc2F)sc2c1CCN(C(=S)Nc1cc(C(F)(F)F)cc(C(F)(F)F)c1)C2`, the inhibition in experiment [1] came to 76.6%; in experiment [2], 68.6%; in experiment [3] it was 77.3%. Moreover, the half-inhibitory concentration (IC50) in the experiment on HL-60 was found to be 17.9 µM; in the experiment with MKN-74 it was 13.3 µM; with HeLa it was 28 µM.

As for `NC(=O)c1c(NC(=O)c2cccc([N+](=O)[O-])c2)sc2c1CCN(Cc1ccc(Cl)cc1Cl)C2`, the figures for the inhibition in experiment [1], in experiment [2] and in experiment [3] were 67.2%, 65.3% and 77.9%, respectively. The IC50 in the experiment with HL-60 was determined as 19.8 µM; in the experiment with MKN-74, 16.5 µM; in the experiment with HeLa it was 33 µM.

For the compound `COc1ccccc1C(=O)Nc1sc2c(c1C(N)=O)CCN(C(=S)Nc1ccccc1Cl)C2`, the figures for the inhibition in experiment [1], in experiment [2] and in experiment [3] were 66.3%, 67.1% and 53.5%, respectively. Also, the concentration for half-maximal inhibition (IC50) is 20.8 µM in the experiment with HL-60, 20.5 µM in the experiment with MKN-74 and greater than 50 µM with HeLa.

As to `NC(=O)c1c(NC(=O)c2ccccc2Cl)sc2c1CCN(Cc1cc(Cl)cc(Cl)c1)C2`, the inhibition came out at 61% in experiment [1], 59.9% in experiment [2] and 22.9% in experiment [3]. Further, the IC50 worked out at 15.8 µM in the experiment on HL-60, 23.7 µM in the experiment on MKN-74 and 19.6 µM in the experiment with HeLa.

With `NC(=O)c1c(NC(=O)c2ccccc2Cl)sc2c1CCN(Cc1ccc(Cl)cc1)C2`, the inhibition worked out at 47.4% in experiment [1], 55.4% in experiment [2] and 47% in experiment [3]. Moreover, the IC50 with HL-60 is 22.5 µM; in the experiment on MKN-74 it was 18.7 µM; in the experiment on HeLa, greater than 50 µM.

Consider `N#Cc1ccccc1CN1CCc2c(sc(NC(=O)c3ccccc3Cl)c2C(N)=O)C1`, for which the inhibition was found to be 55.8% in experiment [1], 42.1% in experiment [2] and 44.3% in experiment [3]. The half-inhibitory concentration (IC50) was 10.4 µM in the experiment with HL-60, 9.5 µM in the experiment on MKN-74 and greater than 50 µM in the experiment on HeLa.

For `COc1ccccc1NC(=S)N1CCc2c(sc(NC(=O)c3ccccc3Cl)c2C(N)=O)C1`, the inhibition in experiment [1] is 71.3%; in experiment [2] it was 70.6%; in experiment [3], 53.7%. Also, the figures for the IC50 in the experiment on HL-60, with MKN-74 and with HeLa were 40.9 µM, 35.2 µM and greater than 50 µM, respectively.

`NC(=O)c1c(NC(=O)c2ccccc2Cl)sc2c1CCN(Cc1ccc(Cl)cc1Cl)C2`: the inhibition in experiment [1] worked out at 68.9%; in experiment [2], 66.6%; in experiment [3], 63.1%. Further, the concentration for half-maximal inhibition (IC50) stood at 8.01 µM in the experiment with HL-60, 16.3 µM in the experiment with MKN-74 and 21.1 µM in the experiment with HeLa.

`NC(=O)c1c(NC(=O)c2ccccc2Cl)sc2c1CCN(C(=S)Nc1ccccc1)C2`: the inhibition in experiment [1] was 85.4%; in experiment [2], 76.5%; in experiment [3], 59.5%. For the same compound, the half-inhibitory concentration (IC50) in the experiment on HL-60 amounted to 5.94 µM; in the experiment with MKN-74 it was 15.6 µM; in the experiment on HeLa it was 46.7 µM.

Turning to `Cc1ccccc1CN1CCc2c(sc(NC(=O)c3ccccc3Cl)c2C(N)=O)C1`, the inhibition came to 60.6% in experiment [1], 53.4% in experiment [2] and 55.3% in experiment [3]. For the same compound, the 50% inhibitory concentration (IC50) with HL-60, in the experiment on MKN-74 and with HeLa was greater than 50 µM throughout.
